From US10717716B2, “1,3,4-oxadiazole derivative compounds as histone deacetylase 6 inhibitor, and the pharmaceutical composition comprising the same” (Chong Kun Dang Pharmaceutical Corp., priority 2015, dated 2020)

Biological target: T1, human recombinant HDAC6 (Homo sapiens, UniProt Q9UBN7)
T1 construct: purchased Calbiochem 382180
T1 sequence (Q9UBN7 1-1215): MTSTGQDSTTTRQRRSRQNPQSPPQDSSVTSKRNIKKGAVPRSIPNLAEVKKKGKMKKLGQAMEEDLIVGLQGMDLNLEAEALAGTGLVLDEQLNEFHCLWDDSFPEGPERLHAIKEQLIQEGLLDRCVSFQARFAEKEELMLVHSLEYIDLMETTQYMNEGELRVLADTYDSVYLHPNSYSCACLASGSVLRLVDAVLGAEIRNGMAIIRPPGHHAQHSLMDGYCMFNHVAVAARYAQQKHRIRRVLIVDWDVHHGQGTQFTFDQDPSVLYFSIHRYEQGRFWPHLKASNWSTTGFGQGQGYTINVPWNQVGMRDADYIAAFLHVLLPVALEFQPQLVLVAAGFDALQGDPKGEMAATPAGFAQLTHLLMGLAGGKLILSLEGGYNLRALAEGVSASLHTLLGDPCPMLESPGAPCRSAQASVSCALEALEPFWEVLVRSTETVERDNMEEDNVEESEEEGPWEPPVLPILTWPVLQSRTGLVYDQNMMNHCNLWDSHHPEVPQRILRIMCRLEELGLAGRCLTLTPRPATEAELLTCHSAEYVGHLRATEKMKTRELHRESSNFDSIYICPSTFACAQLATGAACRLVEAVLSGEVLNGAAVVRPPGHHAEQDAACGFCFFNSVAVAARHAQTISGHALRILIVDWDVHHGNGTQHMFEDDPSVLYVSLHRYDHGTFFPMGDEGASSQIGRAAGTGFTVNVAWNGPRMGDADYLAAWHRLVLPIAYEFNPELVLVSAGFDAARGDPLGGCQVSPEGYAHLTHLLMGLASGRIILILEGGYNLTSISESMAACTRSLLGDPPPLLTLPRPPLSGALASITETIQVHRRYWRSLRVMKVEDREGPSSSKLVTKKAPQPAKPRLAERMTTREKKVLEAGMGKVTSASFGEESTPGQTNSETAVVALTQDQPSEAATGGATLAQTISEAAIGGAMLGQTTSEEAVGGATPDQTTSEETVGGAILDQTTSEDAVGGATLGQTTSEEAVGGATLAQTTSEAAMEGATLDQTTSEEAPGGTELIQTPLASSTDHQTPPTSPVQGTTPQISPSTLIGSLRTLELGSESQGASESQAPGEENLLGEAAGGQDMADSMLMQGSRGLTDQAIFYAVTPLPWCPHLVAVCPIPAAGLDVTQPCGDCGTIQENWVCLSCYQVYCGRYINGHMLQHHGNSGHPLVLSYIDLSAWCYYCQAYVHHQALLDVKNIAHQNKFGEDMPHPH
Experiment: HDAC6 enzyme activity inhibition assay (HDAC Fluorimetric Drug Discovery Kit)
Format: biochemical
Conditions: for HDAC6 selectivity (fold): HDAC6 over HDAC1; for IC50: human recombinant HDAC6, same protocol as HDAC1, read-out: HDAC6
How it was run: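 Fluorimetric deacetylase assay: 5-fold serial compound dilutions, 0.3 μg recombinant human enzyme (HDAC1 or HDAC6, same protocol), 10 μM Fluor de Lys-SIRT1 substrate, 60 min at 30 °C. Signal developed 30 min, measured at 360/460 nm; IC50 values derived.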

Row | SMILES | HDAC6 selectivity (fold) | IC50 [nM]
1 | CC(C)c1nc2ccc(N(Cc3ccc(-c4nnc(C(F)F)o4)cc3F)C(=O)N3CCS(=O)(=O)CC3)cc2s1 [Compound 21813, N-(4-(5-(Difluoromethyl)-1,3,4-oxadiazol-2-yl)-2-fluorobenzyl)-N-(2-isopropylbenzo[d]thiazol-6-yl)thiomorpholine-4-carboxamide 1,1-dioxide] | 30 | 330
2 | O=C(N1CCOCC1)N(Cc1ccc(-c2nnc(C(F)F)o2)cc1F)c1ccc(F)cc1 [Compound 21841, N-(4-(5-(difluoromethyl)-1,3,4-oxadiazol-2-yl)-2-fluorobenzyl)-N-(4-fluorophenyl)morpholine-4-carboxamide] | 382 | 26
3 | O=C(N1CCOCC1)N(Cc1ccc(-c2nnc(C(F)F)o2)cn1)c1cccc(F)c1 [Compound 21843, N-((5-(5-(difluoromethyl)-1,3,4-oxadiazol-2-yl)pyridin-2-yl)methyl)-N-(3-fluorophenyl) morpholine-4-carboxamide] | 461 | 22
4 | O=C(N1CCOCC1)N(Cc1ccc(-c2nnc(C(F)F)o2)cn1)c1cccc(Cl)c1 [Compound 21851, N-(3-chlorophenyl)-N-((5-(5-(difluoromethyl)-1,3,4-oxadiazol-2-yl)pyridin-2-yl)methyl) morpholine-4-carboxamide] | 407 | 25
5 | Cc1ccc(N(Cc2ccc(-c3nnc(C(F)F)o3)cn2)C(=O)N2CCOCC2)c(F)c1 [Compound 21855, N-((5-(5-(difluoromethyl)-1,3,4-oxadiazol-2-yl)pyridin-2-yl)methyl)-N-(2-fluoro-4-methylphenyl)morpholine-4-carboxamide] | 248 | 40
6 | Cc1ccc(N(Cc2ccc(-c3nnc(C(F)F)o3)cc2F)C(=O)N2CCOCC2)c(F)c1 [Compound 21856, N-(4-(5-(difluoromethyl)-1,3,4-oxadiazol-2-yl)-2-fluorobenzyl)-N-(2-fluoro-4-methylphenyl)morpholine-4-carboxamide] | 105 | 95
7 | CCN1CCN(C(=O)N(Cc2ccc(-c3nnc(C(F)F)o3)cn2)c2ccc(Cl)cc2)CC1 [Compound 21882, N-(4-Chlorophenyl)-N-((5-(5-(difluoromethyl)-1,3,4-oxadiazol-2-yl)pyridin-2-yl)methyl)-4-ethylpiperazine-1-carboxamide] | 251 | 40
8 | CCN1CCN(C(=O)N(Cc2ccc(-c3nnc(C(F)F)o3)cc2)c2cccc(F)c2)CC1 [Compound 21883, N-(4-(5-(Difluoromethyl)-1,3,4-oxadiazol-2-yl)benzyl)-4-ethyl-N-(3-fluorophenyl)piperazine-1-carboxamide] | 268 | 37
9 | CCN1CCN(C(=O)N(Cc2ccc(-c3nnc(C(F)F)o3)cc2F)c2cccc(F)c2)CC1 [Compound 21884, N-(4-(5-(Difluoromethyl)-1,3,4-oxadiazol-2-yl)-2-fluorobenzyl)-4-ethyl-N-(3-fluorophenyl)piperazine-1-carboxamide] | 303 | 33
10 | CCN1CCN(C(=O)N(Cc2ccc(-c3nnc(C(F)F)o3)cn2)c2cccc(F)c2)CC1 [Compound 21885, N-((5-(5-(Difluoromethyl)-1,3,4-oxadiazol-2-yl)pyridin-2-yl)methyl)-4-ethyl-N-(3-fluorophenyl)piperazine-1-carboxamide] | 555 | 18
11 | CCN1CCN(C(=O)N(Cc2ccc(-c3nnc(C(F)F)o3)cc2)c2ccc(F)cc2)CC1 [Compound 21886, N-(4-(5-(Difluoromethyl)-1,3,4-oxadiazol-2-yl)benzyl)-4-ethyl-N-(4-fluorophenyl)piperazine-1-carboxamide] | 218 | 46
12 | CCN1CCN(C(=O)N(Cc2ccc(-c3nnc(C(F)F)o3)cc2F)c2ccc(F)cc2)CC1 [Compound 21887, N-(4-(5-(Difluoromethyl)-1,3,4-oxadiazol-2-yl)-2-fluorobenzyl)-4-ethyl-N-(4-fluorophenyl)piperazine-1-carboxamide] | 218 | 46
13 | CCN1CCN(C(=O)N(Cc2ccc(-c3nnc(C(F)F)o3)cn2)c2ccc(F)cc2)CC1 [Compound 21888, N-((5-(5-(Difluoromethyl)-1,3,4-oxadiazol-2-yl)pyridin-2-yl)methyl)-4-ethyl-N-(4-fluorophenyl)piperazine-1-carboxamide] | 388 | 26
14 | CCN1CCN(C(=O)N(Cc2ccc(-c3nnc(C(F)F)o3)cc2)c2cccc(OC)c2)CC1 [Compound 21889, N-(4-(5-(Difluoromethyl)-1,3,4-oxadiazol-2-yl)benzyl)-4-ethyl-N-(3-methoxyphenyl)piperazine-1-carboxamide] | 103 | 98

Now from value to compound:

Row | HDAC6 selectivity (fold) | IC50 [nM] | SMILES
15 | 33 | 305 | Cn1ccc2cc(N(Cc3ccc(-c4nnc(C(F)F)o4)cc3F)C(=O)N3CCS(=O)(=O)CC3)ccc21 [Compound 21799, N-(4-(5-(difluoromethyl)-1,3,4-oxadiazol-2-yl)-2-fluorobenzyl)-N-(1-methyl-1H-indol-5-yl)thiomorpholine-4-carboxamide 1,1-dioxide]
16 | 261 | 38 | O=C(N1CCS(=O)(=O)CC1)N(Cc1ccc(-c2nnc(C(F)F)o2)cc1F)c1ccc(F)cc1 [Compound 21806, N-(4-(5-(difluoromethyl)-1,3,4-oxadiazol-2-yl)-2-fluorobenzyl)-N-(4-fluorophenyl)thiomorpholine-4-carboxamide 1,1-dioxide]
17 | 256 | 39 | O=C(N1CCS(=O)(=O)CC1)N(Cc1ccc(-c2nnc(C(F)F)o2)cc1F)c1cccc(F)c1 [Compound 21807, N-(4-(5-(difluoromethyl)-1,3,4-oxadiazol-2-yl)-2-fluorobenzyl)-N-(3-fluorophenyl)thiomorpholine-4-carboxamide 1,1-dioxide]
18 | 174 | 57 | O=C(N1CCS(=O)(=O)CC1)N(Cc1ccc(-c2nnc(C(F)F)o2)cc1F)c1ccc(Cl)cc1 [Compound 21809, N-(4-chlorophenyl)-N-(4-(5-(difluoromethyl)-1,3,4-oxadiazol-2-yl)-2-fluorobenzyl)thiomorpholine-4-carboxamide 1,1-dioxide]
19 | 144 | 70 | CCn1ncc2ccc(N(Cc3ccc(-c4nnc(C(F)F)o4)cc3F)C(=O)N3CCS(=O)(=O)CC3)cc21 [Compound 21811, N-(4-(5-(Difluoromethyl)-1,3,4-oxadiazol-2-yl)-2-fluorobenzyl)-N-(1-ethyl-1H-indazol-6-yl)thiomorpholine-4-carboxamide 1,1-dioxide]
20 | 94 | 107 | CC(C)n1ncc2ccc(N(Cc3ccc(-c4nnc(C(F)F)o4)cc3F)C(=O)N3CCS(=O)(=O)CC3)cc21 [Compound 21812, N-(4-(5-(Difluoromethyl)-1,3,4-oxadiazol-2-yl)-2-fluorobenzyl)-N-(1-isopropyl-1H-indazol-6-yl)thiomorpholine-4-carboxamide 1,1-dioxide]
21 | 95 | 106 | O=C(N1CCOCC1)N(Cc1ccc(-c2nnc(C(F)F)o2)cc1F)c1ccc(Cl)cc1 [Compound 21849, N-(4-chlorophenyl)-N-(4-(5-(difluoromethyl)-1,3,4-oxadiazol-2-yl)-2-fluorobenzyl)morpholine-4-carboxamide]
22 | 204 | 49 | CCN1CCN(C(=O)N(Cc2ccc(-c3nnc(C(F)F)o3)cc2F)c2ccc(Cl)cc2)CC1 [Compound 21881, N-(4-Chlorophenyl)-N-(4-(5-(difluoromethyl)-1,3,4-oxadiazol-2-yl)-2-fluorobenzyl)-4-ethylpiperazine-1-carboxamide]
